From patent publication US12496304B2, “Selective glucocorticoid receptor modifiers for treating impaired skin wound healing” (AKRIBES BIOMEDICAL GMBH, priority 2019, dated 2025)
Read-outs that look alike come from different tables or passages of the source.

What was measured:
[1] = tested on: human dermal fibroblast (HDF) cells; experiment: Fibroblast-derived matrix formation (FDM) assay, 3D fibroblast culture; assay type: cell-based; settings: for formation of fibroblast-derived matrix (3D): WE from patient #92 (FIG. 12)
Experimental: Human dermal fibroblast (HDF) cells were seeded at 1250 cells/well on day −3 into 384-well tissue culture plates, which had been pre-coated for 1 hour at 37° C. with 0.2% gelatin solution (Sigma). When the cells reached confluence (=day 0), a matrix promoting supplement (vitamin C: 2-phospho-L-ascorbic acid trisodium salt, 100 μg/ml; Sigma) was added together with test samples containing TGF-β1 or graded concentrations of compounds −/+WE as described for the HDF proliferation assay. After 4 days, medium was replaced by fresh vitamin C—and stimulus—as well as compound-containing medium, maintaining the conditions initiated on day 0. TGF-β1 was included as a positive control to promote FDM formation. After a total incubation time of 7 to 8 days, FDM production was measured in fixed cultures via SRB staining and evaluated as described above. In some cases, the experiment was stopped and evaluated already on day 4.

[2] = tested on: primary human dermal fibroblasts (HDF); experiment: Fibroblast proliferation assay (2D) in the presence of wound exudate; assay type: cell-based; settings: for fibroblast proliferation (2D) with wound exudate: graded concentrations
Experimental: (§1) Primary human dermal fibroblasts (HDF) were purchased from CELLnTEC, Bern. They were routinely grown in Dulbecco's modified Eagle's medium (DMEM) containing 10% FCS, 2 mM glutamine, and 100 U/ml penicillin/100 μg/ml streptomycin. Media, antibiotics, and glutamine were bought from Lonza. The cells were used at passage 5-15. Cells were trypsinized and seeded at 2500 cells/well in 30 μl into the inner wells of 384-well plates in the absence or presence of graded compound concentrations with or without different dilutions of sterile-filtered WE in medium. For control samples, 30 μl medium was added instead of specific stimuli. The outer wells were loaded with sterile water. The cells were incubated for 72 hours at 37° C.
(§2) At the end of the incubation period, supernatants were removed for the determination of IL-1β, and the cells were fixed with 4% paraformaldehyde (Morphisto) for 15 minutes at room temperature and washed 3 times with PBS. A control plate was fixed after the overnight adherence of the cells (day 1) to determine the starting cell number.
Total cellular protein was determined as a measure of cell number by staining the fixed cells with sulforhodamine B (SRB, Sigma). A 0.4% SRB solution in 1% acetic acid was added to the wells for 30 minutes. The wells were then washed with 1% acetic acid until the wash solution remained colorless. After drying, the dye was eluted with 10 mM Tris-HCl, pH8.5, and absorbance was measured either at 550 or 492 nm for lower and higher cell densities, respectively. The average absorbance of the sample representing the day 1 starting cell number was subtracted from the absorbance values of the WE-treated cells.
All experiments were carried out in triplicate for each sample and concentration, and means±standard deviation (SD) were used for the evaluation of the experiment. Results are expressed as percentage of control values for unstimulated cells.

glucocorticoid receptor = target: T1, glucocorticoid receptor (Homo sapiens, UniProt P04150); settings: for localization of the glucocorticoid receptor: 45 minutes at 37° C.
T1 sequence (P04150 1-777): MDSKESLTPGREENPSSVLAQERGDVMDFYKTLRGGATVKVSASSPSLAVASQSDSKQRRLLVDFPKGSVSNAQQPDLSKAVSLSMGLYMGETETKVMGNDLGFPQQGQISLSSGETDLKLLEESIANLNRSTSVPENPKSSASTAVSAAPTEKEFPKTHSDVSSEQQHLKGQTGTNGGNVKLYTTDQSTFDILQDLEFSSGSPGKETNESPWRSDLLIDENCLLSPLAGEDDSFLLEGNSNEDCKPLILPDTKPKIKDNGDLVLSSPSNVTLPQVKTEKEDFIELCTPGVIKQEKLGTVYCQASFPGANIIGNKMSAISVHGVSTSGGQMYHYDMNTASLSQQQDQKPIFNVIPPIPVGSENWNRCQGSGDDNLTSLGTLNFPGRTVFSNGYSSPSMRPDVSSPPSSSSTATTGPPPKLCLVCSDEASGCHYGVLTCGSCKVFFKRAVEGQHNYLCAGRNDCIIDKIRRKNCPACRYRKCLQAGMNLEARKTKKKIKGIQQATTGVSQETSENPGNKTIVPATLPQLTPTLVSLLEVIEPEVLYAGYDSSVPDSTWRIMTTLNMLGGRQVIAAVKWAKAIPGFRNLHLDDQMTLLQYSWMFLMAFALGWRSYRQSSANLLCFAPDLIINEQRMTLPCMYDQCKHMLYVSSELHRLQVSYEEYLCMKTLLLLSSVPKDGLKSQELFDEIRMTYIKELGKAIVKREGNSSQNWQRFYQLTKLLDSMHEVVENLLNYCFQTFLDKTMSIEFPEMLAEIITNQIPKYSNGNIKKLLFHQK

IL-8 [3] = experiment: Primary human monocyte cytokine secretion assay (spontaneous IL-8); assay type: cell-based; settings: 16 hours (FIG. 16B)
Experimental: Primary human monocytes were prepared from peripheral blood mononuclear cells (PBMC). PBMC were isolated from buffy coats obtained from the Red Cross, Vienna, using LymphoPrep (Technoclone). 30 ml of buffy concentrate was diluted 1:2 with PBS, gently underlayered with 15 ml Lymphoprep in a 50 ml Falcon tube and centrifuged for 25 minutes at 1800 rpm at 21° C. The interphase was carefully transferred to a new Falcon tube and filled up to 50 ml with ice cold PBS. After another centrifugation step (10 minutes, 1200 rpm, 4° C.), the cell pellet was washed 3 times with PBS, resuspended in RPMI medium containing 20% FCS and 10% DMSO and frozen in liquid nitrogen. Monocytes were generated from frozen aliquots using positive selection with the CD14 Beads-Kit (Miltenyi) on an autoMACS-Sorter (Miltenyi) according to the manufacturer's instructions.
Cells were seeded at 8×10^5/ml in 50 μl/well of a 384-well plate and combined cells with graded concentrations of test compounds. After 16 hours, the supernatants were transferred to fresh plates and frozen at −20° C. for IL-8 analysis, using a commercial ELISA kit.

IL-1β = IL-1β secretion into the supernatant in the fibroblast proliferation assay (ELISA); assay type: cell-based, human; settings: graded concentrations
Experimental: as §1, §2
IL-1β levels were determined with a commercial ELISA kit. The amount of IL-1β contained in the wound exudate added to the cells was subtracted from the total IL-B in the supernatants in order to determine the cytokine secreted by the cells.

IL-8 [4] = experiment: U937 cell stimulation assay (LPS-induced IL-8); assay type: cell-based, human; settings: LPS 100 ng/ml, 16 hours (FIG. 16A)
Experimental: The human monocytic cell line U937 (ATCC CRL 1593) was routinely grown in RPMI_1640 supplemented by 10% FCS and 2 mM glutamine, and 100 U/ml penicillin/100 μg/ml streptomycin. Cells were seeded at 4×10^5/ml in 50 μl/well of a 384-well plate and combined cells with graded concentrations of test compounds and LPS at 100 ng/ml. After 16 hours, the supernatants were transferred to fresh plates and frozen at −20° C. for IL-8 analysis, using a commercial ELISA kit.

| localization of the glucocorticoid receptor (glucocorticoid receptor; 0.1 nM) | localization of the glucocorticoid receptor (glucocorticoid receptor; 1 nM) | localization of the glucocorticoid receptor (glucocorticoid receptor; 100 nM) | localization of the glucocorticoid receptor (glucocorticoid receptor; 10 nm) | Structure (SMILES) | formation of fibroblast-derived matrix (3D) [1] | IL-1β secretion into the supernatant (IL-1β; WE-1 (FIG. 2B, 9B)) | IL-1β secretion into the supernatant (IL-1β; WE-2 (FIG. 10B)) | IL-1β secretion into the supernatant (IL-1β; WE-3 (FIG. 11B)) | fibroblast proliferation (2D) with wound exudate ([2]; WE-1 (FIG. 2A, 9A)) | fibroblast proliferation (2D) with wound exudate ([2]; WE-2 (FIG. 10A)) | fibroblast proliferation (2D) with wound exudate ([2]; WE-3 (FIG. 11A)) | other results |
| --- | --- | --- | --- | --- | --- | --- | --- | --- | --- | --- | --- | --- |
| N/C | N | N | N | C[C@H](NC(=O)C(C)(F)F)[C@H](Oc1ccc2c(cnn2-c2cccc(C(=O)NC3CCOC3)c2)c1)c1ccc2c(c1)OCCO2 (stereo partly drawn) [AZD7594, 3-(5-((1R,2S)-2-(2,2-difluoropropanamido)-1-(2,3-dihydrobenzo[b][1,4]dioxin-6-yl)propoxy)-1H-indazol-1-yl)-N-(tetrahydrofuran-3-yl)benzamide] | most active of the SEGRM tested in 3D culture |  |  |  |  |  |  | fibroblast proliferation, % proliferation of respective WE control ([2]; 1 μM, WE-02, WE control set to 100%): 196%; fibroblast proliferation, % proliferation of respective WE control ([2]; 1 μM, WE-03, WE control set to 100%): 161%; fibroblast proliferation, % proliferation of respective WE control ([2]; 1 μM, WE-04, WE control set to 100%): 1139%; fibroblast proliferation, % proliferation of respective WE control ([2]; 1 μM, WE-05, WE control set to 100%): 203%; fibroblast proliferation, % proliferation of respective WE control ([2]; 1 μM, WE-37, WE control set to 100%): 171%; fibroblast proliferation, % proliferation of respective WE control ([2]; 1 μM, WE-77, WE control set to 100%): 128%; efficacy on fibroblast proliferation compared with mapracorat ([2]; 1 μM, plurality of different wound exudates): comparable to the effect of mapracorat |
|  | N/C | N | N | CCOC[C@]12Cc3cnn(-c4ccc(F)cc4)c3C=C1CCN(S(=O)(=O)c1ccc(C(F)(F)F)cc1)C2 [CORT108297] |  |  |  |  |  |  |  |  |
| N/C | N | N | N | CC(C)(C[C@@](O)(Cc1cc2ccncc2[nH]1)C(F)(F)F)c1cc(F)ccc1O [HY14234] | found to be active | inhibited IL-1β secretion at the same concentrations | inhibition of IL-1β secretion was negligible | inhibited IL-1β secretion at the same concentrations | dose-dependent partial reversion of the wound exudate (WE)-induced inhibition of fibroblast proliferation | dose-dependently reversed inhibition of wound exudate (WE)-induced fibroblast proliferation | dose-dependently reversed inhibition of wound exudate (WE)-induced fibroblast proliferation | spontaneous IL-8 secretion in human monocytes (IL-8 [3]): inhibited both LPS-induced and spontaneous IL-8 secretion; LPS-induced IL-8 secretion in U937 cells (IL-8 [4]): inhibited both LPS-induced and spontaneous IL-8 secretion |

Second part, the compound before the results:

| Structure (SMILES) | localization of the glucocorticoid receptor (glucocorticoid receptor; 0.1 nM) | localization of the glucocorticoid receptor (glucocorticoid receptor; 1 nM) | localization of the glucocorticoid receptor (glucocorticoid receptor; 100 nM) | localization of the glucocorticoid receptor (glucocorticoid receptor; 10 nm) | formation of fibroblast-derived matrix (3D) [1] | IL-1β secretion into the supernatant (IL-1β; WE-1 (FIG. 2B, 9B)) | IL-1β secretion into the supernatant (IL-1β; WE-2 (FIG. 10B)) | IL-1β secretion into the supernatant (IL-1β; WE-3 (FIG. 11B)) | fibroblast proliferation (2D) with wound exudate ([2]; WE-1 (FIG. 2A, 9A)) | fibroblast proliferation (2D) with wound exudate ([2]; WE-2 (FIG. 10A)) | fibroblast proliferation (2D) with wound exudate ([2]; WE-3 (FIG. 11A)) | other results |
| --- | --- | --- | --- | --- | --- | --- | --- | --- | --- | --- | --- | --- |
| C[C@H]1C[C@H]2[C@@H]3CCC4=CC(=O)C=C[C@]4(C)[C@@]3(F)[C@@H](O)C[C@]2(C)[C@@]1(O)C(=O)CCl [Clobetasol] |  |  |  |  |  |  |  |  |  |  |  | glucocorticoid receptor localization, positive control (glucocorticoid receptor): shows nuclear staining |
| Cc1noc(=O)c2ccc(NC(=O)C(O)(CC(C)(C)c3cccc4c3OCC4)C(F)(F)F)cc12 (centres unmarked) [ZK216348] |  |  |  |  | positive effect | inhibited IL-1β secretion at the same concentrations | inhibition of IL-1β secretion was negligible | inhibited IL-1β secretion at the same concentrations | dose-dependent partial reversion of the wound exudate (WE)-induced inhibition of fibroblast proliferation | dose-dependently reversed inhibition of wound exudate (WE)-induced fibroblast proliferation | dose-dependently reversed inhibition of wound exudate (WE)-induced fibroblast proliferation | rescue of fibroblasts in 2D culture from wound-exudate-induced inhibition of proliferation, compared with HY14234 ([2]; FIGS. 9A, 10A, 11A): less efficient |
| CC#C[C@]1(O)CC[C@H]2[C@@H]3CCC4=CC(=O)CCC4=C3[C@@H](c3ccc(N(C)C)cc3)C[C@@]21C [mifepristone] |  |  |  |  |  |  |  |  |  |  |  | effect on the matrix-promoting activity of BI-653048 ([1]; mifepristone 1 μM, WE-1 (FIG. 4)): completely abrogated |
